Test results as given in ChEMBL document CHEMBL4265951, “Multi-target-directed ligands for Alzheimer's disease: Discovery of chromone-based monoamine oxidase/cholinesterase inhibitors” (Eur J Med Chem, 2018).
Active and inactive are the calls of the source. The calls are words filed in the database; no cut-off is given here.

How the values were obtained:
Acetylcholinesterase [1] = target: T1, Acetylcholinesterase (Homo sapiens, UniProt P22303); assay: Inhibition of human AChE using acetylthiocholine iodide as substrate pretreated for 5 mins followed by substrate addition measured after 5 mins by Ellman's method
T1 sequence (P22303 whole entry): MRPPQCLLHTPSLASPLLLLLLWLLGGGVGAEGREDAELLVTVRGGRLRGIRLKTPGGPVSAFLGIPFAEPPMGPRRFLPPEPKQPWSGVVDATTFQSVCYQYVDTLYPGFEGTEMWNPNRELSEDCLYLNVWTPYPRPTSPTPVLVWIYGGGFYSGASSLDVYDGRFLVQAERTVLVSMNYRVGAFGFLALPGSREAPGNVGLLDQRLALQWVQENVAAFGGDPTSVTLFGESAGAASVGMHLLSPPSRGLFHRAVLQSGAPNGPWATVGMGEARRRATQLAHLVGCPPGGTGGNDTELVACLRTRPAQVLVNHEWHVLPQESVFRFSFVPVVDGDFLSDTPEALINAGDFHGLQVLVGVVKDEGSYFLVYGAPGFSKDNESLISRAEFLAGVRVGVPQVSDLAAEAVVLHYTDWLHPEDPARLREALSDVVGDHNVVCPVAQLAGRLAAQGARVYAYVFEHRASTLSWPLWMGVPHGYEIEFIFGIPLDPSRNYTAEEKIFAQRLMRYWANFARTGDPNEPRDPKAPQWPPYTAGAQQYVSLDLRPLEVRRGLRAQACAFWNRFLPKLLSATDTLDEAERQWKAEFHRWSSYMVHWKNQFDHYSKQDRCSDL

[2] = target: T2, Amine oxidase [flavin-containing] B (Homo sapiens, UniProt P27338); assay: Inhibition of human recombinant MAOB expressed in baculovirus infected BTI-TN-5B1- 4 cells using p-tyramine as substrate assessed as decrease in H2O2 production at 10 uM by amplex red-based fluorescence assay
T2 sequence (P27338 whole entry): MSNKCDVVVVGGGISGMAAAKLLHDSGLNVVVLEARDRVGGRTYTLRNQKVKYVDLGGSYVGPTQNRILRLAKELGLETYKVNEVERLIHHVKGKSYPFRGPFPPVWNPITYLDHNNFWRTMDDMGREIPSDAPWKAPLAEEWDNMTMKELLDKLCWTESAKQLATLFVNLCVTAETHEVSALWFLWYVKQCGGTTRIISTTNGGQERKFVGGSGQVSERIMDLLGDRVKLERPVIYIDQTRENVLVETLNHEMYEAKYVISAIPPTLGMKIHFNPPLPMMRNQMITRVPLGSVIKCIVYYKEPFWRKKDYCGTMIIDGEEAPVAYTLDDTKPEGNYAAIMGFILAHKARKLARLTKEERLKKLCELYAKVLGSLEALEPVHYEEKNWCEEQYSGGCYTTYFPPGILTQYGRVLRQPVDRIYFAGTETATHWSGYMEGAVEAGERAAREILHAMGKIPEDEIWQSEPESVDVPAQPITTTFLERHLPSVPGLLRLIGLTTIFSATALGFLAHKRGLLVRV

Cholinesterase [3] = target: T3, Cholinesterase (Homo sapiens, UniProt P06276); assay: Inhibition of human serum BuChE at 10 uM using butyrylthiocholine as substrate pretreated for 5 mins followed by substrate addition measured after 5 mins by Ellman's method
T3 sequence (P06276 whole entry): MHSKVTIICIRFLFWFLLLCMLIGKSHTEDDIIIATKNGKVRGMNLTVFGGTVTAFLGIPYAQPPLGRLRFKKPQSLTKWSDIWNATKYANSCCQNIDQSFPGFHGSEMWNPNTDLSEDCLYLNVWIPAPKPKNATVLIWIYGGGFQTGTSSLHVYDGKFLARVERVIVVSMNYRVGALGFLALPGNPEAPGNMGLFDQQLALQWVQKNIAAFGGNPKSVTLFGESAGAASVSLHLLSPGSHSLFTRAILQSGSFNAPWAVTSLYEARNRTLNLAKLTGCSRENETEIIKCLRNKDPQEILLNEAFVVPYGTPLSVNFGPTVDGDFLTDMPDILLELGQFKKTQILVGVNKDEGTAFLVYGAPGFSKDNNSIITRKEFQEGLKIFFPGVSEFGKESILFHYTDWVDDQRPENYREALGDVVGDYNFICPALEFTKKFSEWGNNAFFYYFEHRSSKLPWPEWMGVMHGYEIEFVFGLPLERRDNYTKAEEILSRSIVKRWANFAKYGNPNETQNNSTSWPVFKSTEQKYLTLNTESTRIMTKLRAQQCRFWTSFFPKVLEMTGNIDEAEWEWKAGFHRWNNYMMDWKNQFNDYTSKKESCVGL

[4] = target: T4, Amine oxidase [flavin-containing] A (Homo sapiens, UniProt P21397); assay: biochemical
T4 sequence (P21397 whole entry): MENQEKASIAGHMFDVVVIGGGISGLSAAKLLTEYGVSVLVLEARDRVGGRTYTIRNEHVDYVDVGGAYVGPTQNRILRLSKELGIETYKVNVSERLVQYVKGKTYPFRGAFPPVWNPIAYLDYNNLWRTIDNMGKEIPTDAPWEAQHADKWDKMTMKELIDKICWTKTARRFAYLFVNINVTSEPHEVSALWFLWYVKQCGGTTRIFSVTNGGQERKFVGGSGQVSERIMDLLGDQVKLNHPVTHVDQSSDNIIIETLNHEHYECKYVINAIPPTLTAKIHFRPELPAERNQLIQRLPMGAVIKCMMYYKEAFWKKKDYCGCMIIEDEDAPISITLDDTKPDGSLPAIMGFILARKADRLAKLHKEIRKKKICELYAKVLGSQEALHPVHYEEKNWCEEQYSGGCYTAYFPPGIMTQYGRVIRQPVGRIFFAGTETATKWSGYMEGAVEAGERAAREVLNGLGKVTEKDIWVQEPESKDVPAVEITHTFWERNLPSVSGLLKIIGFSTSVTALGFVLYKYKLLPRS
Description: Inhibition of human recombinant microsomal MAOA expressed in baculovirus infected BTI-TN-5B1- 4 cells using p-tyramine as substrate assessed as decrease in H2O2 production by amplex red-based fluorescence assay

[5] = target: T2, Amine oxidase [flavin-containing] B; assay: biochemical; assay type: cell-based
Description: Inhibition of human recombinant MAOB expressed in baculovirus infected BTI-TN-5B1- 4 cells using p-tyramine as substrate assessed as decrease in H2O2 production by amplex red-based fluorescence assay

Cholinesterase [6] = target: T3, Cholinesterase; assay: Inhibition of human serum BuChE using butyrylthiocholine as substrate pretreated for 5 mins followed by substrate addition measured after 5 mins by Ellman's method
Beta-secretase 1 = Beta-secretase 1 (Homo sapiens, UniProt P56817); assay: Inhibition of human BACE1 using rhodamine-EVNLDAEFK-quencher as substrate after 60 mins by FRET assay
Chain of Beta-secretase 1 (P56817 whole entry): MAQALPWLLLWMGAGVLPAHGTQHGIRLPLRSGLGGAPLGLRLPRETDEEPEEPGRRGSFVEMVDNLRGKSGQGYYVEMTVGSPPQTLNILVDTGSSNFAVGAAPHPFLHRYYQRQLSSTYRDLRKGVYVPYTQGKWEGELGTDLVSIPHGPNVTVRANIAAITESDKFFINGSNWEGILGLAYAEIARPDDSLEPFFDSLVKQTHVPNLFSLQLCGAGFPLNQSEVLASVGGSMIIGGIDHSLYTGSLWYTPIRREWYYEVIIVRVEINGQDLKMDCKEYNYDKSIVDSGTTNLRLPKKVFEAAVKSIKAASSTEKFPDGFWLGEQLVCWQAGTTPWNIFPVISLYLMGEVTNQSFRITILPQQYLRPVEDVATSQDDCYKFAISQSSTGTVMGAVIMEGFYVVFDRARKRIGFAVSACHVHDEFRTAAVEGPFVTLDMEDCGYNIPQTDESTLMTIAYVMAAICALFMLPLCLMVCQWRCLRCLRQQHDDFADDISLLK

[7] = target: T4, Amine oxidase [flavin-containing] A; assay: Inhibition of human recombinant microsomal MAOA expressed in baculovirus infected BTI-TN-5B1- 4 cells using p-tyramine as substrate assessed as decrease in H2O2 production at 10 uM by amplex red-based fluorescence assay
in vitro = settings: PAMPA
Description: Effective permeability of the compound at 1 mg/ml after 4 hrs by BBB-PAMPA method

Acetylcholinesterase [8] = target: T1, Acetylcholinesterase; assay: Inhibition of human AChE at 10 uM using acetylthiocholine iodide as substrate pretreated for 5 mins followed by substrate addition measured after 5 mins by Ellman's method

| Compound | IC50 (Acetylcholinesterase [1]) [µM] | inhibition (INH) [2] | inhibition (Cholinesterase [3]) | IC50 [4] [µM] | IC50 [5] [µM] | IC50 (Cholinesterase [6]) [µM] | IC50 (Beta-secretase 1) [µM] | inhibition (INH) [7] | Papp at 4 h, 1 mg/ml (in vitro) [×10⁻⁶ cm/s] | inhibition (Acetylcholinesterase [8]) |
| --- | --- | --- | --- | --- | --- | --- | --- | --- | --- | --- |
| COc1ccc(NC(=O)c2cc(=O)c3cc(/C=C/C(=O)OCCN(C)C)ccc3o2)cc1 | 0.91 | Not Active | inactive | 4.91 | – | – | – | – | – | – |
| CN(C)CCOC(=O)/C=C/c1ccc2oc(C(=O)Nc3ccccc3)cc(=O)c2c1 | 0.74 | – | – | – | 2.28 | 1.57 | > 10 | Not Active | 3.6 | – |
| CCN(CC)CCOC(=O)/C=C/c1ccc2oc(C(=O)Nc3ccc(OC)cc3)cc(=O)c2c1 | 1.14 | Not Active | inactive | – | – | – | – | Not Active | – | – |
| CCN(CC)CCOC(=O)/C=C/c1ccc2occ(C(=O)Nc3ccc(C)c(C)c3)c(=O)c2c1 | – | Not Active | inactive | – | – | – | – | Not Active | – | – |
| Cc1ccc(NC(=O)c2coc3ccc(/C=C/C(=O)O)cc3c2=O)cc1 | – | Not Active | inactive | – | – | – | – | Not Active | 1.6 | inactive |
| CCN(CC)CCOC(=O)/C=C/c1ccc2occ(C(=O)Nc3cccc(Cl)c3)c(=O)c2c1 | 8.54 | – | inactive | – | 1.25 | – | – | Not Active | – | – |
| COc1ccc(NC(=O)c2coc3ccc(/C=C/C(=O)O)cc3c2=O)cc1 | 8.7 | Not Active | inactive | – | – | – | – | Not Active | – | – |
| Cc1ccc(NC(=O)c2cc(=O)c3cc(/C=C/C(=O)OCCN(C)C)ccc3o2)cc1C | 0.21 | Not Active | inactive | – | – | – | – | Not Active | – | – |
| CCN(CC)CCOC(=O)/C=C/c1ccc2oc(C(=O)Nc3ccc(C)c(C)c3)cc(=O)c2c1 | 2.47 | – | inactive | – | 2.54 | – | – | Not Active | – | – |
| CCN(CC)CCOC(=O)/C=C/c1ccc2occ(C(=O)Nc3ccccc3)c(=O)c2c1 | – | Not Active | inactive | – | – | – | – | Not Active | – | inactive |
| CN(C)CCOC(=O)/C=C/c1ccc2occ(C(=O)Nc3cccc(Cl)c3)c(=O)c2c1 | – | – | inactive | – | 2.21 | – | – | Not Active | – | inactive |
| CCN(CC)CCOC(=O)/C=C/c1ccc2oc(C(=O)Nc3ccc(Cl)cc3)cc(=O)c2c1 | 0.86 | Not Active | inactive | – | – | – | – | Not Active | – | – |
| CCN(CC)CCOC(=O)/C=C/c1ccc2occ(C(=O)Nc3ccc(Cl)cc3)c(=O)c2c1 | 7.68 | Not Active | inactive | – | – | – | – | Not Active | – | – |
| Cc1ccc(NC(=O)c2coc3ccc(/C=C/C(=O)OCCN(C)C)cc3c2=O)cc1 | 0.97 | – | – | – | 2.37 | 7.42 | > 10 | Not Active | 9.7 | – |
| O=C(O)/C=C/c1ccc2occ(C(=O)Nc3cccc(Cl)c3)c(=O)c2c1 | – | Not Active | inactive | – | – | – | – | Not Active | – | inactive |
| CCN(CC)CCOC(=O)/C=C/c1ccc2oc(C(=O)Nc3cccc(Cl)c3)cc(=O)c2c1 | 4.45 | Not Active | inactive | – | – | – | – | Not Active | – | – |
| Cc1ccc(NC(=O)c2coc3ccc(/C=C/C(=O)O)cc3c2=O)cc1C | – | – | inactive | – | 4.52 | – | – | Not Active | – | inactive |

| Compound | IC50 (Acetylcholinesterase [1]) [µM] | inhibition (INH) [2] | inhibition (Cholinesterase [3]) | IC50 [4] [µM] | IC50 [5] [µM] | IC50 (Cholinesterase [6]) [µM] | IC50 (Beta-secretase 1) [µM] | inhibition (INH) [7] | Papp at 4 h, 1 mg/ml (in vitro) [×10⁻⁶ cm/s] | inhibition (Acetylcholinesterase [8]) |
| --- | --- | --- | --- | --- | --- | --- | --- | --- | --- | --- |
| Cc1ccc(NC(=O)c2cc(=O)c3cc(/C=C/C(=O)O)ccc3o2)cc1 | 5.1 | Not Active | inactive | – | – | – | – | Not Active | 1.5 | – |
| CN(C)CCOC(=O)/C=C/c1ccc2oc(C(=O)Nc3cccc(Cl)c3)cc(=O)c2c1 | 5.92 | Not Active | inactive | – | – | – | – | Not Active | – | – |
| Cc1ccc(NC(=O)c2cc(=O)c3cc(/C=C/C(=O)O)ccc3o2)cc1C | – | Not Active | inactive | – | – | – | – | Not Active | – | inactive |
| CN(C)CCOC(=O)/C=C/c1ccc2occ(C(=O)Nc3ccc(Cl)cc3)c(=O)c2c1 | 9.32 | – | inactive | – | 0.72 | – | – | Not Active | – | – |
| O=C(O)/C=C/c1ccc2oc(C(=O)Nc3cccc(Cl)c3)cc(=O)c2c1 | – | Not Active | inactive | – | – | – | – | Not Active | – | inactive |
| CCN(CC)CCOC(=O)/C=C/c1ccc2oc(C(=O)Nc3ccc(C)cc3)cc(=O)c2c1 | 9.87 | Not Active | inactive | – | – | – | – | Not Active | – | – |
| Cc1ccc(NC(=O)c2coc3ccc(/C=C/C(=O)OCCN(C)C)cc3c2=O)cc1C | – | – | inactive | – | 3.65 | – | – | Not Active | – | inactive |
| CN(C)CCOC(=O)/C=C/c1ccc2oc(C(=O)Nc3ccc(Cl)cc3)cc(=O)c2c1 | 1.22 | Not Active | inactive | – | – | – | – | Not Active | – | – |
| CCN(CC)CCOC(=O)/C=C/c1ccc2occ(C(=O)Nc3ccc(C)cc3)c(=O)c2c1 | 8.99 | Not Active | inactive | – | – | – | – | Not Active | – | – |
| O=C(O)/C=C/c1ccc2oc(C(=O)Nc3ccccc3)cc(=O)c2c1 | 5.99 | Not Active | inactive | – | – | – | – | Not Active | 0.9 | – |
| O=C(O)/C=C/c1ccc2occ(C(=O)Nc3ccc(Cl)cc3)c(=O)c2c1 | – | Not Active | inactive | – | – | – | – | Not Active | – | inactive |
| CCN(CC)CCOC(=O)/C=C/c1ccc2oc(C(=O)Nc3ccccc3)cc(=O)c2c1 | 3.47 | Not Active | inactive | – | – | – | – | Not Active | – | – |
| O=C(O)/C=C/c1ccc2oc(C(=O)Nc3ccc(Cl)cc3)cc(=O)c2c1 | – | Not Active | inactive | – | – | – | – | Not Active | – | inactive |
| COc1ccc(NC(=O)c2coc3ccc(/C=C/C(=O)OCCN(C)C)cc3c2=O)cc1 | 3.54 | Not Active | inactive | – | – | – | – | Not Active | – | – |
| COc1ccc(NC(=O)c2cc(=O)c3cc(/C=C/C(=O)O)ccc3o2)cc1 | 7.43 | Not Active | inactive | – | – | – | – | Not Active | – | – |
| CCN(CC)CCOC(=O)/C=C/c1ccc2occ(C(=O)Nc3ccc(OC)cc3)c(=O)c2c1 | 5.43 | Not Active | inactive | – | – | – | – | Not Active | – | – |
